{"source": "patent US20240246905A1", "about": "(University of Leicester, priority 2021, published 2024)", "key": {"[1]": {"tested_on": "MRSA 252", "assay": "MIC, broth micro-dilution", "type": "cell-based, Staphylococcus aureus", "procedure,_shortened": "(§1)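 Broth micro-dilution followed CLSI 2017: 1:2 antibiotic dilutions in TSB were inoculated at 5×10^5 CFU/mL. OD was recorded every 12 min over 18 h at 37 °C, and MIC was derived from sigmoidal dose-response fits.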"}, "[2]": {"tested_on": "MSSA 476", "assay": "MIC, broth micro-dilution", "type": "cell-based, Staphylococcus aureus", "procedure,_shortened": "as §1"}, "[3]": {"tested_on": "MRSA 252", "assay": "Disc diffusion (Kirby-Bauer), zone of inhibition", "type": "cell-based, Staphylococcus aureus", "conditions": "500 μg/mL, '/' = no zone", "procedure,_shortened": "(§2)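 Kirby-Bauer per CLSI 2017: 1 in 200 dilutions of overnight cultures (LB for Gram-negatives, TSB for Gram-positives) spread on Mueller-Hinton agar. Discs loaded with 50 μL antibiotic were added and plates incubated 24 h at 37 °C. Zone of inhibition recorded.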"}, "[4]": {"tested_on": "MSSA 476", "assay": "Disc diffusion (Kirby-Bauer), zone of inhibition", "type": "cell-based, Staphylococcus aureus", "conditions": "500 μg/mL, '/' = no zone", "procedure,_shortened": "as §2"}, "[5]": {"tested_on": "Escherichia coli DH5α", "assay": "Disc diffusion (Kirby-Bauer), zone of inhibition", "type": "cell-based", "conditions": "Escherichia coli DH5α; 500 μg/mL; '/' = no zone", "procedure,_shortened": "as §2"}, "[6]": {"tested_on": "Staphylococcus aureus 15981", "assay": "Disc diffusion (Kirby-Bauer), zone of inhibition", "type": "cell-based", "conditions": "Staphylococcus aureus 15981; 500 μg/mL; '/' = no zone", "procedure,_shortened": "as §2"}, "[7]": {"tested_on": "various Staphylococcus aureus strains", "assay": "Disc diffusion, Staphylococcus aureus strain study", "type": "cell-based", "conditions": "500 μg/mL", "procedure,_shortened": "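Kirby-Bauer disc diffusion on Mueller-Hinton agar spread with 1:200 dilution of overnight S. aureus cultures (TSB, 37 °C). Discs loaded with 50 μL of compound at 500 μg/mL; zone of inhibition recorded after 24 h at 37 °C.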"}, "[8]": {"tested_on": "HEK293 cells", "assay": "Cytotoxicity assay, resazurin (CO-ADD)", "procedure,_shortened": "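HEK293 cells in DMEM with 10% FBS were exposed to compounds at a single concentration of 32 μg/mL for 20 h at 37° C, 5% CO2. Viability read by resazurin fluorescence (2.3 μg/mL final, 3 h; F560/590). CC50 from sigmoidal dose-response fitting.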"}, "[9]": {"tested_on": "red blood cells", "assay": "Hemolysis assay (CO-ADD)", "type": "cell-based", "conditions": "32 μg/mL highest concentration tested", "description": "A problem often encountered by emerging drugs is hemolysis, also known as drug-induced immune hemolytic anemia."}}}
{"substance": "(2-Isocyanovinyl)-4-acetaamido benzene [Compound 22]", "values": [{"measurement": "MIC", "setting": "[1]", "result": 55, "unit": "µg/mL"}, {"measurement": "MIC", "setting": "[2]", "result": 172, "unit": "µg/mL"}, {"measurement": "Zone of inhibition", "setting": "[3]", "result": 20, "unit": "mm"}, {"measurement": "Zone of inhibition", "setting": "[4]", "result": 16, "unit": "mm"}, {"measurement": "Zone of inhibition", "setting": "[5]", "result": 20, "unit": "mm"}, {"measurement": "Zone of inhibition", "setting": "[6]", "result": 18, "unit": "mm"}, {"measurement": "Zone of inhibition", "setting": "[7]; strain ASARM 61", "result": 18, "unit": "mm"}, {"measurement": "Zone of inhibition", "setting": "[7]; strain ASARM 70", "result": 18, "unit": "mm"}, {"measurement": "Zone of inhibition", "setting": "[7]; strain ASARM 71", "result": 20, "unit": "mm"}, {"measurement": "Zone of inhibition", "setting": "[7]; strain ASARM 72", "result": 22, "unit": "mm"}, {"measurement": "Zone of inhibition", "setting": "[7]; strain ASARM 73", "result": 20, "unit": "mm"}, {"measurement": "Zone of inhibition", "setting": "[7]; strain ASARM 75", "result": 22, "unit": "mm"}, {"measurement": "Zone of inhibition", "setting": "[7]; strain ASARM 76", "result": 26, "unit": "mm"}, {"measurement": "Zone of inhibition", "setting": "[7]; strain ASARM 77", "result": 24, "unit": "mm"}, {"measurement": "Zone of inhibition", "setting": "[7]; strain ASARM 79", "result": 22, "unit": "mm"}, {"measurement": "Zone of inhibition", "setting": "[7]; strain ASARM 80", "result": 26, "unit": "mm"}, {"measurement": "Zone of inhibition", "setting": "[7]; strain EOE 3", "result": 20, "unit": "mm"}, {"measurement": "Zone of inhibition", "setting": "[7]; strain EOE 23", "result": 22, "unit": "mm"}, {"measurement": "Zone of inhibition", "setting": "[7]; strain EOE 30", "result": 20, "unit": "mm"}, {"measurement": "Zone of inhibition", "setting": "[7]; strain EOE 35", "result": 18, "unit": "mm"}, {"measurement": "Zone of inhibition", "setting": "[7]; strain EOE 41", "result": 20, "unit": "mm"}, {"measurement": "Zone of inhibition", "setting": "[7]; strain EOE 42", "result": 22, "unit": "mm"}, {"measurement": "Zone of inhibition", "setting": "[7]; strain EOE 45", "result": 26, "unit": "mm"}, {"measurement": "Zone of inhibition", "setting": "[7]; strain EOE 52", "result": 22, "unit": "mm"}, {"measurement": "Zone of inhibition", "setting": "[7]; strain EOE 54", "result": 16, "unit": "mm"}, {"measurement": "Zone of inhibition", "setting": "[7]; strain EOE 57", "result": 18, "unit": "mm"}, {"measurement": "Zone of inhibition", "setting": "[7]; strain MRSA 252", "result": 20, "unit": "mm"}, {"measurement": "Zone of inhibition", "setting": "[7]; strain S139_7_7", "result": 16, "unit": "mm"}, {"measurement": "Zone of inhibition", "setting": "[7]; strain S197_1_1", "result": 22, "unit": "mm"}, {"measurement": "Zone of inhibition", "setting": "[7]; strain S197_1_8", "result": 24, "unit": "mm"}, {"measurement": "Zone of inhibition", "setting": "[7]; strain S197_1_9", "result": 26, "unit": "mm"}, {"measurement": "Zone of inhibition", "setting": "[7]; strain S197_1_10", "result": 22, "unit": "mm"}, {"measurement": "Zone of inhibition", "setting": "[7]; strain S295_1_1", "result": 20, "unit": "mm"}, {"measurement": "Zone of inhibition", "setting": "[7]; strain S295_1_2", "result": 20, "unit": "mm"}, {"measurement": "Zone of inhibition", "setting": "[7]; strain S295_1_3", "result": 20, "unit": "mm"}, {"measurement": "Zone of inhibition", "setting": "[7]; strain S364_5_11", "result": 22, "unit": "mm"}, {"measurement": "Zone of inhibition", "setting": "[7]; strain S364_5_12", "result": 20, "unit": "mm"}, {"measurement": "Zone of inhibition", "setting": "[7]; strain Sa_TPS 3026", "result": 20, "unit": "mm"}, {"measurement": "Zone of inhibition", "setting": "[7]; strain Sa_TPS 3072", "result": 22, "unit": "mm"}, {"measurement": "Zone of inhibition", "setting": "[7]; strain Sa_TPS 3092", "result": 24, "unit": "mm"}, {"measurement": "Zone of inhibition", "setting": "[7]; strain Sa_TPS 3097", "result": 24, "unit": "mm"}, {"measurement": "Zone of inhibition", "setting": "[7]; strain Sa_TPS 3103", "result": 22, "unit": "mm"}, {"measurement": "Zone of inhibition", "setting": "[7]; strain Sa_TPS 3104", "result": 20, "unit": "mm"}, {"measurement": "Zone of inhibition", "setting": "[7]; strain Sa_TPS 3106", "result": 26, "unit": "mm"}, {"measurement": "Zone of inhibition", "setting": "[7]; strain Sa_TPS 3118", "result": 18, "unit": "mm"}, {"measurement": "Zone of inhibition", "setting": "[7]; strain Sa_TPS 3133", "result": 18, "unit": "mm"}, {"measurement": "Zone of inhibition", "setting": "[7]; strain Sa_TPS 3134", "result": 18, "unit": "mm"}, {"measurement": "Zone of inhibition", "setting": "[7]; strain USFL 008", "result": 14, "unit": "mm"}, {"measurement": "Zone of inhibition", "setting": "[7]; strain USFL 009", "result": 14, "unit": "mm"}, {"measurement": "Zone of inhibition", "setting": "[7]; strain USFL 012", "result": 16, "unit": "mm"}, {"measurement": "Zone of inhibition", "setting": "[7]; strain USFL 016", "result": 18, "unit": "mm"}, {"measurement": "Zone of inhibition", "setting": "[7]; strain USFL 018", "result": 18, "unit": "mm"}, {"measurement": "Zone of inhibition", "setting": "[7]; strain USFL 020", "result": 16, "unit": "mm"}, {"measurement": "Zone of inhibition", "setting": "[7]; strain USFL 021", "result": 16, "unit": "mm"}, {"measurement": "Zone of inhibition", "setting": "[7]; strain USFL 028", "result": 15, "unit": "mm"}, {"measurement": "Zone of inhibition", "setting": "[7]; strain USFL 035", "result": 16, "unit": "mm"}, {"measurement": "Zone of inhibition", "setting": "[7]; strain USFL 054", "result": 19, "unit": "mm"}, {"measurement": "Zone of inhibition", "setting": "[7]; strain not given", "result": 18, "unit": "mm"}, {"measurement": "Concentration toxic to HEK 293 cells", "setting": "[8]; HEK 293", "result": ">32000", "unit": "ng/mL"}, {"measurement": "toxicity towards the HEK293 cell line (in words)", "setting": "[8]; set concentration of 32 μg/mL", "result": "no toxicity"}, {"measurement": "Hemolytic activity (HC10)", "setting": "[9]", "result": ">32", "unit": "µg/mL"}]}
